From paper PMC10481364 (The Journal of Biological Chemistry, 2023)
Where “and” joins values, the source holds several entries; their conditions need not be identical. Equal values may be shown once. Entries after “also recorded” stand apart in the source; their conditions may differ. Blank lines part the entries; values can stand above or below the compound they belong to.

Columns and labels:
[1] = molecular target: T1, CYP17A1 (Homo sapiens, UniProt P05093); test: UV-visible spectral ligand binding assay, isolated CYP17A1; settings: difference spectra
T1 sequence (P05093 with tags, fused parts or gaps): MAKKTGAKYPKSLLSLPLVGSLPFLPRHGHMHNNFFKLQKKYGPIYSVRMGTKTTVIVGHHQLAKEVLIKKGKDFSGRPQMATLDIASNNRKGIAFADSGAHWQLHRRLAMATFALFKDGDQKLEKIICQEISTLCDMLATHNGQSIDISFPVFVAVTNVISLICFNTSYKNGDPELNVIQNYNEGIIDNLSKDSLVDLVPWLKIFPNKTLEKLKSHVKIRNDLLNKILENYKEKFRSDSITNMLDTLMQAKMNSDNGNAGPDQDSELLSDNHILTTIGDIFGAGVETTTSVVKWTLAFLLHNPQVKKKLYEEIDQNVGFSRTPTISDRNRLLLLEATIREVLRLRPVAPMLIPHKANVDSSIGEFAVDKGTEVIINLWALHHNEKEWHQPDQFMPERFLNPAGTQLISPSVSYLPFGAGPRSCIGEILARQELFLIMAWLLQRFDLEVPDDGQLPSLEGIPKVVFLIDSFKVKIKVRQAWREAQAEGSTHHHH

[2] = molecular target: T2, FMND/CYP17A1 (Homo sapiens, UniProt P05093+P16435); assay type: binding; settings: for spectral shift (binding mode): difference spectra, FMND/CYP17A1 fusion, FMN domain oxidized
T2 sequence (P16435+P05093 with tags, fused parts or gaps): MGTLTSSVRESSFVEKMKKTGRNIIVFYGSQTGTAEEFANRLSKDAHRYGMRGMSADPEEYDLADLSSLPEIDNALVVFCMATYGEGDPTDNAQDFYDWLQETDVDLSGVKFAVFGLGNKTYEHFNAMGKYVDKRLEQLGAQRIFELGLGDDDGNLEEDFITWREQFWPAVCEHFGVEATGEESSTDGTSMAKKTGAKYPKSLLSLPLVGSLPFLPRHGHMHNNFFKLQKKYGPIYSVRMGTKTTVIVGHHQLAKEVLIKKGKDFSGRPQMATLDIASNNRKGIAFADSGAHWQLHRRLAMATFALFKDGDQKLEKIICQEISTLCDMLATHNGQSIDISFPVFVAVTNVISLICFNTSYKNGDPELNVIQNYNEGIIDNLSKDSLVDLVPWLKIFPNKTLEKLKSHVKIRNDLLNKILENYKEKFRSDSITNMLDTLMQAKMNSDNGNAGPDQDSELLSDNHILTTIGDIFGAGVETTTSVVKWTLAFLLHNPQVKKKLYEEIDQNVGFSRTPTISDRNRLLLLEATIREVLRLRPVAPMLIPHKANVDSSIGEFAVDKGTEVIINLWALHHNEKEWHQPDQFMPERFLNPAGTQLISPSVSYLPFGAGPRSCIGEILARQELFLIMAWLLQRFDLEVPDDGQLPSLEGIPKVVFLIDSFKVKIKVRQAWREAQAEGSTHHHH

[3] = molecular target: T3, FMND/CYP3A4 (Homo sapiens, UniProt P08684); settings: FMND/CYP3A4 compared with CYP3A4
[4] = molecular target: T4, CYP2A6 (Homo sapiens, UniProt P11509); test: UV-visible spectral ligand binding assay, isolated CYP2A6; settings: difference spectra
T4 sequence (P11509 with tags, fused parts or gaps): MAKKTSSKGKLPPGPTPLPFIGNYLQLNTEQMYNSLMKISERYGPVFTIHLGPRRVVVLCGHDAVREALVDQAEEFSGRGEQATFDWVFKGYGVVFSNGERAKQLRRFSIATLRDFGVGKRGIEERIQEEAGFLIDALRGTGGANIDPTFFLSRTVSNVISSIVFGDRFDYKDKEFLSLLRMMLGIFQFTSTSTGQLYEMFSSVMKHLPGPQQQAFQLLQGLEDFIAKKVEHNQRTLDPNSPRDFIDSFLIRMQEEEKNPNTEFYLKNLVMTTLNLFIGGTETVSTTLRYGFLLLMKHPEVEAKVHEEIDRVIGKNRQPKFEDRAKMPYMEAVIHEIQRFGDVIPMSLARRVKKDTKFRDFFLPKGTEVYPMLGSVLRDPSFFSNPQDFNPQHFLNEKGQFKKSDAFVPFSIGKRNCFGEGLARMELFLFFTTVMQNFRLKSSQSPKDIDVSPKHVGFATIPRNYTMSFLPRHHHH

[5] = molecular target: T5, FMND/CYP2A6 (Homo sapiens, UniProt P11509); assay type: binding; settings: for spectral shift (binding mode): difference spectra, FMND/CYP2A6 fusion, FMN domain oxidized
T5 sequence (P11509 with tags, fused parts or gaps): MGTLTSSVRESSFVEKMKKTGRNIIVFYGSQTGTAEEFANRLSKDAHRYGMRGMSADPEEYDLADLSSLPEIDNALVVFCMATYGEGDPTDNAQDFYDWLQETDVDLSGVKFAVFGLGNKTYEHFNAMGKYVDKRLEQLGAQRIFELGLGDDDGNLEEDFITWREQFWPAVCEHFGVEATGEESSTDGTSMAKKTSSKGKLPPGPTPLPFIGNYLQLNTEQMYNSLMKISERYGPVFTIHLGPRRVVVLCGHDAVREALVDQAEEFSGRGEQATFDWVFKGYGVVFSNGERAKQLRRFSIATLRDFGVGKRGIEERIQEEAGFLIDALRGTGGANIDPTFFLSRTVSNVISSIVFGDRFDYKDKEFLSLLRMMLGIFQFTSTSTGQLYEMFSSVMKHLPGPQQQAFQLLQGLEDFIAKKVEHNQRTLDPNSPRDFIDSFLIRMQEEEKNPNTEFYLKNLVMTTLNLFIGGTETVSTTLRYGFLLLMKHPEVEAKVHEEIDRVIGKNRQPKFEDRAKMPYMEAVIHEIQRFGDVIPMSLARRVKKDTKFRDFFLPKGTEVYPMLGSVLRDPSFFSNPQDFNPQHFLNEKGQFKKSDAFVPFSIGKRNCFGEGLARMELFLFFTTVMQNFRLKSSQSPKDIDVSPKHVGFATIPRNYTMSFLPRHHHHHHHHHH

[6] = molecular target: T5, FMND/CYP2A6; assay type: biochemical; settings: coumarin metabolism to 7-hydroxycoumarin, cumene hydroperoxide, FMND/CYP2A6 vs CYP2A6
[7] = molecular target: T3, FMND/CYP3A4; assay type: biochemical; settings: hydrocortisone metabolism to 6β-hydroxycortisol, cumene hydroperoxide, FMND/CYP3A4 vs CYP3A4
[8] = molecular target: T6, FMND/CYP21A2 (Homo sapiens, UniProt P08686+P16435, R103K); assay type: binding
T6 sequence (P16435+P08686 with tags, fused parts or gaps P08686:R103K): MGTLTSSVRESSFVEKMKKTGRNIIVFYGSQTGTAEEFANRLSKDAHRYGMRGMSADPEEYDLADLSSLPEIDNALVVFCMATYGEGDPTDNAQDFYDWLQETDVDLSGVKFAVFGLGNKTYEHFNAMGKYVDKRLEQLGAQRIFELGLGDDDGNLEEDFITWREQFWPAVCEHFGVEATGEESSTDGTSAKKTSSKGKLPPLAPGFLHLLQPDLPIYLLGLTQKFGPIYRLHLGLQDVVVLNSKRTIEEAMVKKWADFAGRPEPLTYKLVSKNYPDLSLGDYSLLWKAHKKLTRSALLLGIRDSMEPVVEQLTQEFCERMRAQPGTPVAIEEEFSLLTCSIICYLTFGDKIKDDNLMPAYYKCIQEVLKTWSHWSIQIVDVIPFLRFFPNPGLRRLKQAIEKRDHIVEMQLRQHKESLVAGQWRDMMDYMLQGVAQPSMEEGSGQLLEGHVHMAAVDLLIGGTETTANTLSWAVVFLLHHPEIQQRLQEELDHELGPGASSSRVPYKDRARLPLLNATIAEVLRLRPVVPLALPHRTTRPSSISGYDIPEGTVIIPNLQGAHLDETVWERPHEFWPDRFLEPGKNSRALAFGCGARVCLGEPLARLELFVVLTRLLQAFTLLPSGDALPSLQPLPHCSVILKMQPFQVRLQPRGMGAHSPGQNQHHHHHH

[9] = system: FMND/CYP2D6; assay type: binding, human
[10] = molecular target: CYP2D6 (Homo sapiens, UniProt P10635); test: UV-visible spectral ligand binding assay, isolated CYP2D6; settings: difference spectra
[11] = molecular target: T6, FMND/CYP21A2; assay type: biochemical; settings: progesterone 21-hydroxylation, cumene hydroperoxide, FMND/CYP21A2 vs CYP21A2
[12] = molecular target: T7, CYP21A2 (Homo sapiens, UniProt P08686, R103K); test: UV-visible spectral ligand binding assay, isolated CYP21A2; settings: difference spectra
T7 sequence (P08686 with tags, fused parts or gaps R103K limits assumed): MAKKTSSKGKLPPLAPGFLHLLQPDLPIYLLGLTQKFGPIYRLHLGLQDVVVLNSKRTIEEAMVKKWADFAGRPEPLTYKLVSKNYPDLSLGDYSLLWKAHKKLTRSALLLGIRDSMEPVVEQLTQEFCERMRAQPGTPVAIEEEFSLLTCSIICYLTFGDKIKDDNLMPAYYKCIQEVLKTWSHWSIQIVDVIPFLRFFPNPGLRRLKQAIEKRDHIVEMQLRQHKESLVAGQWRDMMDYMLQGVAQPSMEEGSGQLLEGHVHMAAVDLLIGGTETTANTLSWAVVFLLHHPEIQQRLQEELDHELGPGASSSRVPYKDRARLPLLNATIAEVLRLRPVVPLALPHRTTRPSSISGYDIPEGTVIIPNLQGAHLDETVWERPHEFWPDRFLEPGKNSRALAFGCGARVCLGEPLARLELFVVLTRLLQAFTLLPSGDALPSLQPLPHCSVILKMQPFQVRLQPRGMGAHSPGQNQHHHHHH

[13] = molecular target: T2, FMND/CYP17A1; assay type: biochemical; settings: progesterone 17α-hydroxylation, cumene hydroperoxide
[14] = FMND/CYP17A1 compared with CYP17A1
[15] = FMND/CYP2A6 compared with CYP2A6
[16] = FMND/CYP21A2 compared with CYP21A2
[17] = FMND/CYP2D6 compared with CYP2D6

Structure (SMILES): CC(=O)[C@@]1(O)CC[C@H]2[C@@H]3CC=C4C[C@@H](O)CC[C@]4(C)[C@H]3CC[C@@]21C [17α-hydroxypregnenolone]
spectral shift (binding mode) [1]: type I | decrease in Kd by FMN domain fusion [2, 14]: 12% | effect of FMN domain fusion on saturation (ΔAmax), in words [2, 14]: little effect | increase in overall binding efficiency (ΔAmax/Kd) by FMN domain fusion [2, 14]: 16% | spectral shift (binding mode) [2]: type I

reduction in the Kd value by FMND fusion [3]: 49% | reduction in total binding / final saturation (ΔAmax) by FMND fusion [3]: 58%
Structure (SMILES): Clc1ccccc1C(c1ccccc1)(c1ccccc1)n1ccnc1 [clotrimazole]

spectral shift (binding mode) [4]: type I | change in total ligand binding by FMN domain fusion, in words [5, 15]: relatively little change | increase in the Kd value by FMN domain fusion [5, 15]: more than 2 fold | spectral shift (binding mode) [5]: type I | effect on Km, in words [6]: little effect | effect on catalytic efficiency, in words [6]: decreased
Structure (SMILES): O=c1ccc2ccccc2o1 [coumarin]

decrease in Km by addition of the FMN domain [7]: ~30% | decrease in kcat by addition of the FMN domain [7]: ~21% | reduction in the Kd value by FMND fusion [3]: 30% | reduction in total binding / final saturation (ΔAmax) by FMND fusion [3]: 33%
Structure (SMILES): C[C@]12CCC(=O)C=C1CC[C@@H]1[C@@H]2[C@@H](O)C[C@@]2(C)[C@H]1CC[C@]2(O)C(=O)CO [hydrocortisone]

decrease in total / maximal absorbance change (ΔAmax) by FMN domain fusion [8, 16]: ~30% | increase in the dissociation constant by FMN domain fusion [8, 16]: 31%
Structure (SMILES): CC(=O)N1CCN(c2ccc(OCC3COC(Cn4ccnc4)(c4ccc(Cl)cc4Cl)O3)cc2)CC1 (stereo not drawn) [ketoconazole]
effect of FMN domain fusion on saturation (ΔAmax), in words [2, 14]: no significant changes; also recorded: essentially no effect

spectral shift (binding mode) [4]: type II | change in the affinity by FMN domain fusion, in words [5, 15]: no change | decrease in total binding (ΔAmax) by FMN domain fusion [5, 15]: 30% | spectral shift (binding mode) [5]: type II | increase in affinity by FMN domain fusion [9, 17]: 37% | increase in ΔAmax/Kd binding efficiency by FMN domain fusion [9, 17]: 32% | reduction in total binding at saturation by FMN domain fusion [9, 17]: 17%
Structure (SMILES): CC[C@@H]1C(=O)OC[C@@H]1Cc1cncn1C [pilocarpine]

spectral shift (binding mode) [1]: type I | effect of FMN domain fusion on binding efficiency, in words [2, 14]: largely unchanged | effect of FMN domain fusion on saturation (ΔAmax), in words [2, 14]: increased | spectral shift (binding mode) [2]: type I
Structure (SMILES): CC(=O)[C@H]1CC[C@H]2[C@@H]3CC=C4C[C@@H](O)CC[C@]4(C)[C@H]3CC[C@]12C [pregnenolone]

spectral shift (binding mode) ([9]; difference spectra, FMND/CYP2D6 fusion, FMN domain oxidized): type II | spectral shift (binding mode) [10]: type II
Structure (SMILES): CC1(C)SCCN(S(=O)(=O)c2ccc(Oc3ccncc3)cc2)[C@H]1C(=O)NO [prinomastat]

decrease in total / maximal absorbance change (ΔAmax) by FMN domain fusion [8, 16]: 31% and 30% | effect of FMN domain fusion on the affinity, in words [8, 16]: without substantially altering | spectral shift (binding mode) ([8]; difference spectra, FMND/CYP21A2 fusion, FMN domain oxidized): type I | spectral shift (binding mode) [1]: type I | effect on catalytic efficiency, in words [11]: unchanged | increase in kcat by FMN domain fusion [11]: 17% | increase in affinity by FMN domain fusion [2, 14]: 17% | increase in overall binding efficiency (ΔAmax/Kd) by FMN domain fusion [2, 14]: 38% | spectral shift (binding mode) [2]: type I | spectral shift (binding mode) [12]: type I | steady-state kinetics, saturation ([13]; CYP17A1 and FMND/CYP17A1): saturation could not be reached | trend of the FMN domain effect on kcat and Km, in words ([13]; FMND/CYP17A1 vs CYP17A1, poorly defined): increase kcat as well as Km
Structure (SMILES): CC(=O)[C@H]1CC[C@H]2[C@@H]3CCC4=CC(=O)CC[C@]4(C)[C@H]3CC[C@]12C [progesterone]
